{
  "source": "patent US20090118332A1",
  "about": "“Therapeutic Agents - 551” (AstraZeneca AB, priority 2006, published 2009)",
  "target": "T1, human Fatty Acid Synthase (Homo sapiens, UniProt P49327)",
  "T1 construct": "made in house",
  "T1 sequence (P49327 whole entry)": "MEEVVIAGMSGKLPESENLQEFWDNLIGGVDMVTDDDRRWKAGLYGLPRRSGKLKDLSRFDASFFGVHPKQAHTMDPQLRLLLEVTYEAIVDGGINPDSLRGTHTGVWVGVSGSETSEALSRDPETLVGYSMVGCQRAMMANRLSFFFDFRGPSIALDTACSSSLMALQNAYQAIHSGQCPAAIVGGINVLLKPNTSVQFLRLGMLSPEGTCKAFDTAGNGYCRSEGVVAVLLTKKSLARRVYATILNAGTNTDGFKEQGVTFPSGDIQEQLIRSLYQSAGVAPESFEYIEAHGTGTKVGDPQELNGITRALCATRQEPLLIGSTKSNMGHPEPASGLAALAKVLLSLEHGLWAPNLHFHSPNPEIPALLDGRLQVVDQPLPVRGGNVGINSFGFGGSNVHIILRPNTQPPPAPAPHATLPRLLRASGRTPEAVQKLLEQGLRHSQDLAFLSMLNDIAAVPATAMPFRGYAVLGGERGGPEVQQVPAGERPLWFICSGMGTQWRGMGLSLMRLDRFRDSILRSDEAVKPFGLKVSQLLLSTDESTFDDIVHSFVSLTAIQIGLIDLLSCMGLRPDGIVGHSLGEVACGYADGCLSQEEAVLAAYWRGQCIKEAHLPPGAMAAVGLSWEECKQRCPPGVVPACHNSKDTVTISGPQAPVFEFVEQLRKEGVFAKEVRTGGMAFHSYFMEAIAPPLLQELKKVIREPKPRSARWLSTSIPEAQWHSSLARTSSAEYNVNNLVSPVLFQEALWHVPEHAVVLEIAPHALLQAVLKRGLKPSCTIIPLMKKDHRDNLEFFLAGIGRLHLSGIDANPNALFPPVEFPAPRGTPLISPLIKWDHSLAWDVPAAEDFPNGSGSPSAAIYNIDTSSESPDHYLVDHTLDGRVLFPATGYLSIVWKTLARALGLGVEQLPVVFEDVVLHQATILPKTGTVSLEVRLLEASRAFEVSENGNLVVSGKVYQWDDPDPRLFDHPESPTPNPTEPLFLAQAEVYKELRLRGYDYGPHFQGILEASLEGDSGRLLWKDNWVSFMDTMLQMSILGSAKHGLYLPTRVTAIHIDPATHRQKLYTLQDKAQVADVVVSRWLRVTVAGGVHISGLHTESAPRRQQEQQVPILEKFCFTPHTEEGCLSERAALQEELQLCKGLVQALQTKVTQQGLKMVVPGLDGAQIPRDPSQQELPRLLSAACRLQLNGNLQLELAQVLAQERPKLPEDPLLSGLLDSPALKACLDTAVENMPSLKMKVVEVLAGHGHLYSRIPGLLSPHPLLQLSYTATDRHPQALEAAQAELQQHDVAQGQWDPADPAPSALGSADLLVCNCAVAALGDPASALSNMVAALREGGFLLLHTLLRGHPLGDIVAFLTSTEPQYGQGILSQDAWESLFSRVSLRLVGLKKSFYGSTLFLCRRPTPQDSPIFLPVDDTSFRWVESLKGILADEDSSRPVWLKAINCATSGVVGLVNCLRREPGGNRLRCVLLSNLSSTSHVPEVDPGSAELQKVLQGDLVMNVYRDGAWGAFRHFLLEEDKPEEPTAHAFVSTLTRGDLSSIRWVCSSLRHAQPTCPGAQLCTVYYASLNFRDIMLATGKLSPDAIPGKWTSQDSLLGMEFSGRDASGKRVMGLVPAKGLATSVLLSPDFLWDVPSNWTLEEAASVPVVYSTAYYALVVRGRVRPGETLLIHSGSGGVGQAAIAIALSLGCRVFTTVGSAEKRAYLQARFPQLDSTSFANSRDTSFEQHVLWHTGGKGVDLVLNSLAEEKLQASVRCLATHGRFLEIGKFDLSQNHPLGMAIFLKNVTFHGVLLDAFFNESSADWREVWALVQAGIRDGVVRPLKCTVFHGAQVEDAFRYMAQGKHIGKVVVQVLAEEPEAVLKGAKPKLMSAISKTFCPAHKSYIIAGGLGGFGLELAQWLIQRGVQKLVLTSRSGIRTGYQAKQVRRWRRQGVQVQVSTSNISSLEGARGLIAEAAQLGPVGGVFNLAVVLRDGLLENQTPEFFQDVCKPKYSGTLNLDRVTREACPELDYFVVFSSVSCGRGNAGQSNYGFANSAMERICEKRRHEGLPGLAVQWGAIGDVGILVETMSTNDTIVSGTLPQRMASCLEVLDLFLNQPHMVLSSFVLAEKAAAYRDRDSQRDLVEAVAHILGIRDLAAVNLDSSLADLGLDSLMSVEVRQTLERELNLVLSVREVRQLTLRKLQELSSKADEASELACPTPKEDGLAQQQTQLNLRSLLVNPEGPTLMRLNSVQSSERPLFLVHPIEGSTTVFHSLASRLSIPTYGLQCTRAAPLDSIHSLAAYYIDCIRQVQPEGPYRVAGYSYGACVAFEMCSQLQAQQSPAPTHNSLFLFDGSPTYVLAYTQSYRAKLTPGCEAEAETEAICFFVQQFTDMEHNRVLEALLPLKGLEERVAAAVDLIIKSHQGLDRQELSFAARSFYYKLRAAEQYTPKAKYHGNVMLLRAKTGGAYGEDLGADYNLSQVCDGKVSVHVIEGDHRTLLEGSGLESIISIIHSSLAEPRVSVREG",
  "test": "Human FAS enzyme assay (decrease in NADPH fluorescence)",
  "format": "biochemical",
  "conditions": "% inhibition at a concentration of 100 μmolar",
  "in_short": "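In-house human FAS was preincubated with compound and NADPH for 15 min at room temperature in 0.1 M Tris pH 7.5 with EDTA, glutathione and BSA. Malonyl CoA and acetyl CoA (500 μM and 150 μM in the added mix) were then added for 60 min. IC50 came from time-zero-subtracted NADPH fluorescence (340/460 nm).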",
  "data": [
    {"smiles": "Cc1ccc(C(=O)N2CCC(c3ccc(C#N)cc3)CC2)cc1NC(=O)NCCNS(=O)(=O)C(C)C", "note": "[Example 122, 1-[5-[4-(4-cyanophenyl)piperidine-1-carbonyl]-2-methyl-phenyl]-3-[2-(propan-2-ylsulfonylamino)ethyl]urea]", "values": [
      {"measurement": "inhibition at 100 µM", "value": 96.1, "unit": "%"}
    ]},
    {"smiles": "Cc1ccc(C(=O)N2CCC(c3ccc(C(=O)N(C)C)cc3)CC2)cc1NC(=O)NCc1ccccc1", "note": "[Example 123, 4-[1-[3-(benzylcarbamoylamino)-4-methyl-benzoyl]-4-piperidyl]-N,N-dimethyl-benzamide]", "values": [
      {"measurement": "inhibition at 100 µM", "value": 79.7, "unit": "%"}
    ]},
    {"smiles": "Cc1ccc(C(=O)N2CCC(c3ccc(C(=O)N(C)C)cc3)CC2)cc1NC(=O)NC(C)C", "note": "[Example 124, N,N-dimethyl-4-[1-[4-methyl-3-(propan-2-ylcarbamoylamino)benzoyl]-4-piperidyl]benzamide]", "values": [
      {"measurement": "inhibition at 100 µM", "value": 78, "unit": "%"}
    ]},
    {"smiles": "Cc1ccc(C(=O)N2CCC(c3ccc(C#N)cc3)CC2)cc1NC(=O)NCCC(=O)O", "note": "[Example 125, 3-[[5-[4-(4-cyanophenyl)piperidine-1-carbonyl]-2-methyl-phenyl]carbamoylamino]propanoic acid]", "values": [
      {"measurement": "inhibition at 100 µM", "value": 91.7, "unit": "%"}
    ]},
    {"smiles": "Cc1ccc(C(=O)N2CCC(c3ccc(C#N)cc3)CC2)cc1NC(=O)NCCC(N)=O", "note": "[Example 126, 3-[[5-[4-(4-cyanophenyl)piperidine-1-carbonyl]-2-methyl-phenyl]carbamoylamino]propanamide]", "values": [
      {"measurement": "inhibition at 100 µM", "value": 87.4, "unit": "%"}
    ]},
    {"smiles": "Cc1ccc(C(=O)N2CCC(c3ccc(C#N)cc3)CC2)cc1NC(=O)NCCC(=O)N1CCOCC1", "note": "[Example 127, 1-[5-[4-(4-cyanophenyl)piperidine-1-carbonyl]-2-methyl-phenyl]-3-(3-morpholin-4-yl-3-oxo-propyl)urea]", "values": [
      {"measurement": "inhibition at 100 µM", "value": 93, "unit": "%"}
    ]},
    {"smiles": "COCCNC(=O)CCNC(=O)Nc1cc(C(=O)N2CCC(c3ccc(C#N)cc3)CC2)ccc1C", "note": "[Example 128, 3-[[5-[4-(4-cyanophenyl)piperidine-1-carbonyl]-2-methyl-phenyl]carbamoylamino]-N-(2-methoxyethyl)propanamide]", "values": [
      {"measurement": "inhibition at 100 µM", "value": 87.5, "unit": "%"}
    ]},
    {"smiles": "Cc1ccc(C(=O)N2CCC(c3ccc(C#N)cc3)CC2)cc1NC(=O)NCCC(=O)NC(C)C", "note": "[Example 129, 3-[[5-[4-(4-cyanophenyl)piperidine-1-carbonyl]-2-methyl-phenyl]carbamoylamino]-N-propan-2-yl-propanamide]", "values": [
      {"measurement": "inhibition at 100 µM", "value": 99.1, "unit": "%"}
    ]},
    {"smiles": "Cc1ccc(C(=O)N2CCC(c3ccc(C#N)cc3)CC2)cc1NC(=O)NCCC(=O)N(C)C", "note": "[Example 130, 3-[[5-[4-(4-cyanophenyl)piperidine-1-carbonyl]-2-methyl-phenyl]carbamoylamino]-N,N-dimethyl-propanamide]", "values": [
      {"measurement": "inhibition at 100 µM", "value": 90.5, "unit": "%"}
    ]},
    {"smiles": "Cc1ccc(C(=O)N2CCC(c3ccc(C#N)cc3)CC2)cc1NC(=O)NCCCN1CCCC1=O", "note": "[Example 131, 1-[5-[4-(4-cyanophenyl)piperidine-1-carbonyl]-2-methyl-phenyl]-3-[3-(2-oxopyrrolidin-1-yl)propyl]urea]", "values": [
      {"measurement": "inhibition at 100 µM", "value": 89.8, "unit": "%"}
    ]},
    {"smiles": "CCOC(=O)N1CCC(NC(=O)Nc2cc(C(=O)N3CCC(c4ccc(C#N)cc4)CC3)ccc2C)CC1", "note": "[Example 132, ethyl 4-[[5-[4-(4-cyanophenyl)piperidine-1-carbonyl]-2-methyl-phenyl]carbamoylamino]piperidine-1-carboxylate]", "values": [
      {"measurement": "inhibition at 100 µM", "value": 89.5, "unit": "%"}
    ]},
    {"smiles": "Cc1ccc(C(=O)N2CCC(c3ccc(C#N)cc3)CC2)cc1NC(=O)NC1CCCCNC1=O", "note": "(centres unmarked) [Example 133, 1-[5-[4-(4-cyanophenyl)piperidine-1-carbonyl]-2-methyl-phenyl]-3-(2-oxoazepan-3-yl)urea]", "values": [
      {"measurement": "inhibition at 100 µM", "value": 81.2, "unit": "%"}
    ]},
    {"smiles": "Cc1ccc(C(=O)N2CCC(c3ccc(C#N)cc3)CC2)cc1NC(=O)NC1CCCC[C@@H]1C(N)=O", "note": "(stereo partly drawn) [Example 134, (1S)-2-[[5-[4-(4-cyanophenyl)piperidine-1-carbonyl]-2-methyl-phenyl]carbamoylamino]cyclohexane-1-carboxamide]", "values": [
      {"measurement": "inhibition at 100 µM", "value": 84.6, "unit": "%"}
    ]},
    {"smiles": "Cc1ccc(C(=O)N2CCC(c3ccc(C#N)cc3)CC2)cc1NC(=O)NCCN1CCNC1=O", "note": "[Example 135, 1-[5-[4-(4-cyanophenyl)piperidine-1-carbonyl]-2-methyl-phenyl]-3-[2-(2-oxoimidazolidin-1-yl)ethyl]urea]", "values": [
      {"measurement": "inhibition at 100 µM", "value": 81.1, "unit": "%"}
    ]},
    {"smiles": "Cc1ccc(C(=O)N2CCC(c3ccc(C#N)cc3)CC2)cc1NC(=O)NCc1cc(=O)[nH]o1", "note": "[Example 136, 1-[5-[4-(4-cyanophenyl)piperidine-1-carbonyl]-2-methyl-phenyl]-3-[(3-oxo-1,2-oxazol-5-yl)methyl]urea]", "values": [
      {"measurement": "inhibition at 100 µM", "value": 80.9, "unit": "%"}
    ]},
    {"smiles": "Cc1ccc(C(=O)N2CCC(c3ccc(C#N)cc3)CC2)cc1NC(=O)NCCN1CCCC1", "note": "[Example 137, 1-[5-[4-(4-cyanophenyl)piperidine-1-carbonyl]-2-methyl-phenyl]-3-(2-pyrrolidin-1-ylethyl)urea]", "values": [
      {"measurement": "inhibition at 100 µM", "value": 87.9, "unit": "%"}
    ]},
    {"smiles": "Cc1ccc(C(=O)N2CCC(c3ccc(C#N)cc3)CC2)cc1NC(=O)NCCCN(C)C", "note": "[Example 138, 1-[5-[4-(4-cyanophenyl)piperidine-1-carbonyl]-2-methyl-phenyl]-3-(3-dimethylaminopropyl)urea]", "values": [
      {"measurement": "inhibition at 100 µM", "value": 83.7, "unit": "%"}
    ]},
    {"smiles": "Cc1ccc(C(=O)N2CCC(c3ccc(C#N)cc3)CC2)cc1NC(=O)NCCc1c[nH]cn1", "note": "[Example 139, 1-[5-[4-(4-cyanophenyl)piperidine-1-carbonyl]-2-methyl-phenyl]-3-[2-(1H-imidazol-4-yl)ethyl]urea]", "values": [
      {"measurement": "inhibition at 100 µM", "value": 87, "unit": "%"}
    ]},
    {"smiles": "Cc1ccc(C(=O)N2CCC(c3ccc(C#N)cc3)CC2)cc1NC(=O)NCCCN1CCN(C)CC1", "note": "[Example 140, 1-[5-[4-(4-cyanophenyl)piperidine-1-carbonyl]-2-methyl-phenyl]-3-[3-(4-methylpiperazin-1-yl)propyl]urea]", "values": [
      {"measurement": "inhibition at 100 µM", "value": 79.2, "unit": "%"}
    ]},
    {"smiles": "Cc1ccc(C(=O)N2CCC(c3ccc(C#N)cc3)CC2)cc1NC(=O)NCCCN(CCO)CCO", "note": "[Example 141, 3-[3-(bis(2-hydroxyethyl)amino)propyl]-1-[5-[4-(4-cyanophenyl)piperidine-1-carbonyl]-2-methyl-phenyl]urea]", "values": [
      {"measurement": "inhibition at 100 µM", "value": 82.1, "unit": "%"}
    ]},
    {"smiles": "Cc1ccc(C(=O)N2CCC(c3ccc(C#N)cc3)CC2)cc1NC(=O)NCCCCN(C)C", "note": "[Example 142, 1-[5-[4-(4-cyanophenyl)piperidine-1-carbonyl]-2-methyl-phenyl]-3-(4-dimethylaminobutyl)urea]", "values": [
      {"measurement": "inhibition at 100 µM", "value": 80.3, "unit": "%"}
    ]},
    {"smiles": "Cc1ccc(C(=O)N2CCC(c3ccc(C#N)cc3)CC2)cc1NC(=O)NC1CN2CCC1CC2", "note": "(centres unmarked) [Example 143, 3-(1-azabicyclo[2.2.2]oct-8-yl)-1-[5-[4-(4-cyanophenyl)piperidine-1-carbonyl]-2-methyl-phenyl]urea]", "values": [
      {"measurement": "inhibition at 100 µM", "value": 84.4, "unit": "%"}
    ]},
    {"smiles": "Cc1ccc(C(=O)N2CCC(c3ccc(C#N)cc3)CC2)cc1NC(=O)NCCC1CCCN1C", "note": "(centres unmarked) [Example 144, 1-[5-[4-(4-cyanophenyl)piperidine-1-carbonyl]-2-methyl-phenyl]-3-[2-(1-methylpyrrolidin-2-yl)ethyl]urea]", "values": [
      {"measurement": "inhibition at 100 µM", "value": 81.7, "unit": "%"}
    ]},
    {"smiles": "Cc1ccc(C(=O)N2CCC(c3ccc(C#N)cc3)CC2)cc1NC(=O)NCCN(C)C", "note": "[Example 145, 1-[5-[4-(4-cyanophenyl)piperidine-1-carbonyl]-2-methyl-phenyl]-3-(2-dimethylaminoethyl)urea]", "values": [
      {"measurement": "inhibition at 100 µM", "value": 79.3, "unit": "%"}
    ]},
    {"smiles": "Cc1ccc(C(=O)N2CCC(c3ccc(C#N)cc3)CC2)cc1NC(=O)NCCCN1CCOCC1", "note": "[Example 146, 1-[5-[4-(4-cyanophenyl)piperidine-1-carbonyl]-2-methyl-phenyl]-3-(3-morpholin-4-ylpropyl)urea]", "values": [
      {"measurement": "inhibition at 100 µM", "value": 89.7, "unit": "%"}
    ]},
    {"smiles": "COCCN1CCC(NC(=O)Nc2cc(C(=O)N3CCC(c4ccc(C#N)cc4)CC3)ccc2C)CC1", "note": "[Example 147, 1-[5-[4-(4-cyanophenyl)piperidine-1-carbonyl]-2-methyl-phenyl]-3-[1-(2-methoxyethyl)-4-piperidyl]urea]", "values": [
      {"measurement": "inhibition at 100 µM", "value": 79.5, "unit": "%"}
    ]},
    {"smiles": "Cc1ccc(C(=O)N2CCC(c3ccc(C#N)cc3)CC2)cc1NC(=O)NC1CCN(C)CC1", "note": "[Example 148, 1-[5-[4-(4-cyanophenyl)piperidine-1-carbonyl]-2-methyl-phenyl]-3-(1-methyl-4-piperidyl)urea]", "values": [
      {"measurement": "inhibition at 100 µM", "value": 79.5, "unit": "%"}
    ]},
    {"smiles": "CCN1CCC[C@H]1CNC(=O)Nc1cc(C(=O)N2CCC(c3ccc(C#N)cc3)CC2)ccc1C", "note": "[Example 149, 3-[5-[4-(4-cyanophenyl)piperidine-1-carbonyl]-2-methyl-phenyl]-1-[[(2S)-1-ethylpyrrolidin-2-yl]methyl]urea]", "values": [
      {"measurement": "inhibition at 100 µM", "value": 80.2, "unit": "%"}
    ]},
    {"smiles": "Cc1ccc(C(=O)N2CCC(c3ccc(C#N)cc3)CC2)cc1NC(=O)NCc1cncn1C", "note": "[Example 150, 1-[5-[4-(4-cyanophenyl)piperidine-1-carbonyl]-2-methyl-phenyl]-3-[(3-methylimidazol-4-yl)methyl]urea]", "values": [
      {"measurement": "inhibition at 100 µM", "value": 85, "unit": "%"}
    ]},
    {"smiles": "Cc1ccc(C(=O)N2CCC(c3ccc(C#N)cc3)CC2)cc1NC(=O)NCC1CCCO1", "note": "(centres unmarked) [Example 151, 1-[5-[4-(4-cyanophenyl)piperidine-1-carbonyl]-2-methyl-phenyl]-3-(oxolan-2-ylmethyl)urea]", "values": [
      {"measurement": "inhibition at 100 µM", "value": 92.1, "unit": "%"}
    ]},
    {"smiles": "COCCNC(=O)Nc1cc(C(=O)N2CCC(c3ccc(C#N)cc3)CC2)ccc1C", "note": "[Example 152, 1-[5-[4-(4-cyanophenyl)piperidine-1-carbonyl]-2-methyl-phenyl]-3-(2-methoxyethyl)urea]", "values": [
      {"measurement": "inhibition at 100 µM", "value": 95.1, "unit": "%"}
    ]},
    {"smiles": "Cc1ccc(C(=O)N2CCC(c3ccc(C#N)cc3)CC2)cc1NC(=O)NCCCOC(C)C", "note": "[Example 153, 1-[5-[4-(4-cyanophenyl)piperidine-1-carbonyl]-2-methyl-phenyl]-3-(3-propan-2-yloxypropyl)urea]", "values": [
      {"measurement": "inhibition at 100 µM", "value": 88.2, "unit": "%"}
    ]},
    {"smiles": "COCCCNC(=O)Nc1cc(C(=O)N2CCC(c3ccc(C#N)cc3)CC2)ccc1C", "note": "[Example 154, 1-[5-[4-(4-cyanophenyl)piperidine-1-carbonyl]-2-methyl-phenyl]-3-(3-methoxypropyl)urea]", "values": [
      {"measurement": "inhibition at 100 µM", "value": 93, "unit": "%"}
    ]},
    {"smiles": "COCC(C)NC(=O)Nc1cc(C(=O)N2CCC(c3ccc(C#N)cc3)CC2)ccc1C", "note": "(centres unmarked) [Example 155, 1-[5-[4-(4-cyanophenyl)piperidine-1-carbonyl]-2-methyl-phenyl]-3-(1-methoxypropan-2-yl)urea]", "values": [
      {"measurement": "inhibition at 100 µM", "value": 90.1, "unit": "%"}
    ]},
    {"smiles": "CSCCNC(=O)Nc1cc(C(=O)N2CCC(c3ccc(C#N)cc3)CC2)ccc1C", "note": "[Example 156, 1-[5-[4-(4-cyanophenyl)piperidine-1-carbonyl]-2-methyl-phenyl]-3-(2-methylsulfanylethyl)urea]", "values": [
      {"measurement": "inhibition at 100 µM", "value": 92.2, "unit": "%"}
    ]}
  ]
}
